Inconclusive results and toxic doses are left out. Rule for the calls: active = survival T/C of 150% or more; inactive = T/C below 125% in these data.
System: CD2F1 mice, L1210 leukemia ip, survival T/C
Experiment: NCI In Vivo Anticancer Drug Screen. Data for tumor model L1210 Leukemia (intraperitoneal) in CD2F1 (CDF1) mice
Details: higher = longer survival
Procedure, shortened: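 Vehicle-treated tumor-bearing mice served as controls (C) for compound-treated mice (T). Reported figure is T divided by C.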

[1] = endpoint: mean survival time, dose: 100.0 mg/kg/injection, schedule: Q04DX003 (ip), vehicle: saline
[2] = endpoint: mean survival time, dose: 200.0 mg/kg/injection, schedule: Q04DX003 (ip), vehicle: saline
[3] = endpoint: mean survival time, dose: 400.0 mg/kg/injection, schedule: Q04DX003 (ip), vehicle: saline
[4] = endpoint: mean survival time, dose: 100.0 mg/kg/injection, schedule: Q04DX002 (ip), vehicle: saline with Tween-80
[5] = endpoint: mean survival time, dose: 200.0 mg/kg/injection, schedule: Q04DX002 (ip), vehicle: saline with Tween-80
[6] = endpoint: mean survival time, dose: 100.0 mg/kg/injection, schedule: Q04DX003 (ip), vehicle: saline with Tween-80
[7] = endpoint: mean survival time, dose: 200.0 mg/kg/injection, schedule: Q04DX003 (ip), vehicle: saline with Tween-80
[8] = endpoint: mean survival time, dose: 400.0 mg/kg/injection, schedule: Q04DX003 (ip), vehicle: saline with Tween-80
[9] = endpoint: mean survival time, dose: 6.25 mg/kg/injection, schedule: Q04DX003 (ip), vehicle: saline
[10] = endpoint: mean survival time, dose: 12.5 mg/kg/injection, schedule: Q04DX003 (ip), vehicle: saline
[11] = endpoint: mean survival time, dose: 12.5 mg/kg/injection, schedule: Q01DX009 (ip), vehicle: saline with Tween-80
[12] = endpoint: mean survival time, dose: 50.0 mg/kg/injection, schedule: Q01DX009 (ip), vehicle: saline with Tween-80
[13] = endpoint: mean survival time, dose: 50.0 mg/kg/injection, schedule: Q04DX003 (ip), vehicle: saline
[14] = endpoint: mean survival time, dose: 100.0 mg/kg/injection, schedule: Q01DX009 (ip), vehicle: saline with Tween-80
[15] = endpoint: mean survival time, dose: 200.0 mg/kg/injection, schedule: Q01DX009 (ip), vehicle: saline with Tween-80
[16] = endpoint: mean survival time, dose: 25.0 mg/kg/injection, schedule: Q04DX003 (ip), vehicle: saline with Tween-80
[17] = endpoint: mean survival time, dose: 400.0 mg/kg/injection, schedule: Q01DX009 (ip), vehicle: saline with Tween-80

Measured: T/C

CCC/C=C\CC(C)C(C)CC (centres undefined)
inactive: [1] 101 % of control | [2] 108 % of control | [3] 104 % of control

NC(=O)C1(C(N)=O)CCCCC1
inactive: endpoint: mean survival time, dose: 50.0 mg/kg/injection, schedule: Q04DX002 (ip), vehicle: saline with Tween-80 100 % of control | [4] 112 % of control | [5] 100 % of control

O=C(O)C(Br)C(Br)C(=O)O (centres undefined)
inactive: endpoint: mean survival time, dose: 50.0 mg/kg/injection, schedule: Q01DX001 (ip), vehicle: carboxymethylcellulose (CMC) 98 % of control | endpoint: mean survival time, dose: 100.0 mg/kg/injection, schedule: Q01DX001 (ip), vehicle: carboxymethylcellulose (CMC) 93 % of control | endpoint: mean survival time, dose: 200.0 mg/kg/injection, schedule: Q01DX001 (ip), vehicle: carboxymethylcellulose (CMC) 95 % of control

CCC(CCC(C)C1CCC2C3CC=C4CC(O)CCC4(C)C3CCC12C)C(C)C (centres undefined) (tested in a mixture with another compound)
inactive: endpoint: mean survival time, dose: 25.0 mg/kg/injection, schedule: Q01DX009 (ip), vehicle: acetone 93 % of control | endpoint: mean survival time, dose: 100.0 mg/kg/injection, schedule: Q01DX009 (ip), vehicle: acetone 87 % of control

O=C(CC(Br)C(=O)c1ccccc1)c1ccccc1 (centres undefined)
inactive: endpoint: mean survival time, dose: 100.0 mg/kg/injection, schedule: Q04DX003 (ip), vehicle: saline sonified 92 % of control | endpoint: mean survival time, dose: 200.0 mg/kg/injection, schedule: Q04DX003 (ip), vehicle: saline sonified 94 % of control | endpoint: mean survival time, dose: 400.0 mg/kg/injection, schedule: Q04DX003 (ip), vehicle: saline sonified 97 % of control

CCCCOC1CCC(O)C2CCCCC12 (centres undefined)
inactive: [6] 105 % of control | [7] 96 % of control | [8] 104 % of control

CC[C@]12CN3CCc4c([nH]c5ccccc45)[C@@](C(=O)OC)(c4cc5c(cc4OC)N(C)[C@H]4[C@@](O)(C(=O)OC)[C@H](OC(C)=O)[C@]6(CC)C=CCN7CC[C@]54[C@@H]76)CC(C3)[C@H]1O2 (some centres undefined)
inactive: endpoint: mean survival time, dose: 1.5 mg/kg/injection, schedule: Q01DX009 (ip), vehicle: Klucel (hydroxypropylcellulose) (HPC) 106 % of control | endpoint: mean survival time, dose: 3.0 mg/kg/injection, schedule: Q01DX009 (ip), vehicle: Klucel (hydroxypropylcellulose) (HPC) 108 % of control | endpoint: mean survival time, dose: 6.0 mg/kg/injection, schedule: Q01DX009 (ip), vehicle: Klucel (hydroxypropylcellulose) (HPC) 110 % of control | [9] 111 % of control | endpoint: mean survival time, dose: 12.0 mg/kg/injection, schedule: Q01DX009 (ip), vehicle: Klucel (hydroxypropylcellulose) (HPC) 112 % of control | [10] 120 % of control | endpoint: median survival time, dose: 1.0 mg/kg/injection, schedule: Q03HX008 (ip), vehicle: saline 100 % of control | endpoint: median survival time, dose: 1.0 mg/kg/injection, schedule: Q03HX016 (ip), vehicle: saline 100 % of control | endpoint: median survival time, dose: 1.0 mg/kg/injection, schedule: Q03HX024 (ip), vehicle: saline 100 % of control | endpoint: median survival time, dose: 2.0 mg/kg/injection, schedule: Q03HX008 (ip), vehicle: saline 110 % of control | endpoint: median survival time, dose: 2.0 mg/kg/injection, schedule: Q03HX016 (ip), vehicle: saline 120 % of control | endpoint: median survival time, dose: 2.0 mg/kg/injection, schedule: Q03HX024 (ip), vehicle: saline 120 % of control | endpoint: median survival time, dose: 4.0 mg/kg/injection, schedule: Q01DX009 (ip), vehicle: saline 110 % of control | endpoint: median survival time, dose: 4.0 mg/kg/injection, schedule: Q04DX003 (ip), vehicle: saline 100 % of control | endpoint: median survival time, dose: 8.0 mg/kg/injection, schedule: Q01DX001 (ip), vehicle: saline 100 % of control | endpoint: median survival time, dose: 8.0 mg/kg/injection, schedule: Q04DX003 (ip), vehicle: saline 105 % of control | endpoint: median survival time, dose: 8.0 mg/kg/injection, schedule: Q08DX002 (ip), vehicle: saline 115 % of control | endpoint: median survival time, dose: 16.0 mg/kg/injection, schedule: Q01DX001 (ip), vehicle: saline 110 % of control | endpoint: median survival time, dose: 16.0 mg/kg/injection, schedule: Q01DX009 (ip), vehicle: saline 100 % of control | endpoint: median survival time, dose: 16.0 mg/kg/injection, schedule: Q08DX002 (ip), vehicle: saline 110 % of control | endpoint: median survival time, dose: 32.0 mg/kg/injection, schedule: Q01DX001 (ip), vehicle: saline 110 % of control

COC(COS(=O)(=O)c1ccc(Br)cc1)(c1ccccc1)c1ccccc1
inactive: [11] 95 % of control | endpoint: mean survival time, dose: 25.0 mg/kg/injection, schedule: Q01DX009 (ip), vehicle: saline with Tween-80 88 % of control | [12] 88 % of control

O=C(CBr)c1ccc(I)cc1
inactive: endpoint: mean survival time, dose: 3.13 mg/kg/injection, schedule: Q04DX003 (ip), vehicle: saline 94 % of control | [9] 98 % of control | [10] 94 % of control | endpoint: mean survival time, dose: 25.0 mg/kg/injection, schedule: Q04DX003 (ip), vehicle: saline 98 % of control | [13] 98 % of control | [1] 106 % of control

CCSC(=N)N
inactive: [1] 94 % of control | [2] 91 % of control | [3] 97 % of control

Cc1ccc(NC(=O)Oc2ccc(Br)cc2)cc1[N+](=O)[O-]
inactive: [12] 98 % of control | [14] 102 % of control | [15] 98 % of control

COc1ccc2c(c1)c(C#N)cc[n+]2C
inactive: endpoint: mean survival time, dose: 6.25 mg/kg/injection, schedule: Q01DX009 (ip), vehicle: saline with Tween-80 100 % of control | [11] 110 % of control | endpoint: mean survival time, dose: 12.5 mg/kg/injection, schedule: Q04DX003 (ip), vehicle: saline with Tween-80 100 % of control | [16] 91 % of control

CCc1cccc(OCC(C)=O)c1
inactive: endpoint: mean survival time, dose: 75.0 mg/kg/injection, schedule: Q01DX001 (ip), vehicle: saline with Tween-80 97 % of control | endpoint: mean survival time, dose: 150.0 mg/kg/injection, schedule: Q01DX001 (ip), vehicle: saline with Tween-80 101 % of control | endpoint: mean survival time, dose: 300.0 mg/kg/injection, schedule: Q01DX001 (ip), vehicle: saline with Tween-80 100 % of control

OCCC1CC1=C1CC1 (centres undefined)
inactive: endpoint: mean survival time, dose: 100.0 mg/kg/injection, schedule: Q04DX003 (ip), vehicle: Klucel (hydroxypropylcellulose) (HPC) 101 % of control | endpoint: mean survival time, dose: 200.0 mg/kg/injection, schedule: Q04DX003 (ip), vehicle: Klucel (hydroxypropylcellulose) (HPC) 101 % of control

Cc1ccc(S(=O)(=O)OCC(OS(=O)(=O)c2ccc(C)cc2)C2OC(c3ccccc3)OC2C2COC(c3ccccc3)O2)cc1 (centres undefined)
inactive: [14] 95 % of control | [15] 95 % of control | [17] 95 % of control

COc1cccc(C=Nc2ccc(C)cc2)c1O.COc1cccc(C=Nc2ccc(C)cc2)c1O.[Co]
inactive: [16] 91 % of control | endpoint: mean survival time, dose: 50.0 mg/kg/injection, schedule: Q04DX003 (ip), vehicle: saline with Tween-80 88 % of control | [13] 102 % of control | [6] 94 % of control | [1] 98 % of control | [7] 94 % of control | [2] 96 % of control | [8] 99 % of control | [3] 98 % of control

Cc1ccc(S(=O)(=O)NC(=O)OCCc2c3ccccc3nc3ccccc23)cc1
inactive: endpoint: mean survival time, dose: 100.0 mg/kg/injection, schedule: Q04DX002 (ip), vehicle: other 97 % of control | [4] 97 % of control | endpoint: mean survival time, dose: 200.0 mg/kg/injection, schedule: Q04DX002 (ip), vehicle: other 97 % of control | [5] 109 % of control

CNC(=S)Nc1ccc(C(=O)NC(C)C)cc1
inactive: endpoint: mean survival time, dose: 50.0 mg/kg/injection, schedule: Q01DX009 (ip), vehicle: other 100 % of control | endpoint: mean survival time, dose: 100.0 mg/kg/injection, schedule: Q01DX009 (ip), vehicle: other 95 % of control | endpoint: mean survival time, dose: 200.0 mg/kg/injection, schedule: Q01DX009 (ip), vehicle: other 97 % of control

CC(C)(C[NH-])C[NH-].O=C(O)CC(=O)O.[Pt+2]
inactive: endpoint: median survival time, dose: 0.78 mg/kg/injection, schedule: Q04DX003 (ip), vehicle: water 116 % of control | endpoint: median survival time, dose: 1.56 mg/kg/injection, schedule: Q04DX003 (ip), vehicle: water 113 % of control | endpoint: median survival time, dose: 3.12 mg/kg/injection, schedule: Q04DX003 (ip), vehicle: water 112 % of control | endpoint: median survival time, dose: 3.13 mg/kg/injection, schedule: Q04DX003 (ip), vehicle: distilled water + Tween-80 123 % of control | endpoint: median survival time, dose: 12.5 mg/kg/injection, schedule: Q04DX003 (ip), vehicle: distilled water + Tween-80 116 % of control | endpoint: median survival time, dose: 12.5 mg/kg/injection, schedule: Q04DX003 (ip), vehicle: water 112 % of control | endpoint: median survival time, dose: 25.0 mg/kg/injection, schedule: Q04DX003 (ip), vehicle: distilled water + Tween-80 98 % of control

COc1ccc(OC)c(/C=C/c2ccc3ccccc3n2)c1
inactive: [14] 110 % of control | [6] 104 % of control | [15] 98 % of control | [7] 104 % of control | [17] 106 % of control | [8] 108 % of control

— PubChem BioAssay AID256 (DTP/NCI, 2004)
